Source: PMC5695911 (Cell Reports, 2017)
Where two headings read alike, the source gives them in different places.

Experiments:
[1] = system: human glucagon receptor (hGCGR); assay type: cell-based
[2] = system: human glucagon-like peptide 1 receptor (hGLP-1R); assay type: cell-based; conditions: COS-7 cells
INS1 cells [3] = assay: cAMP accumulation in cultured rat β cells; assay type: cell-based
INS1 cells [4] = assay type: cell-based, rat
isolated rat pancreases = assay: Isolated perfused rat pancreas, insulin secretion
[5] = system: diabetic animal models (db/db and ob/ob mice); assay: Administration of PG 1-61 to diabetic animal models; assay type: in vivo; conditions: 1 pmol; db/db (12 weeks, n=5) and ob/ob mice (14-15 weeks, n=3)
[6] = system: cultured human hepatocytes (HepG2); assay: cAMP in cultured human hepatocytes; assay type: cell-based
[7] = system: protein kinase A (PKA), glucose-6-phosphatase (G6P), phosphorylase kinase (PKC-1), glycogen phosphorylase (GP), phosphoenolpyruvate carboxykinase (PECK); assay type: cell-based, human
rats = conditions: i.v., 1 pmol, 20 min

With “RSLQDTEEKSRSFSASQADPLSDPDQMNEDKRHSQGTFTSDYSKYLDSRRAQDFVQWLMNT [PG 1-61]” the “fold decreased potency compared to native glucagon, hGCGR” value ([1]; from LogEC50 vs glucagon) was 100 fold, the “agonist class at hGCGR” value ([1]; transiently transfected COS-7 cells) was “full agonist” and the “agonist class / potency in words at hGLP-1R” value [2] was “very low potency”. For the same sequence, the “activation of hGLP-1R, in words” value ([2]; Figure 3B legend) was “but not the human glucagon-like peptide 1 receptor (hGLP-1R)”, the “percent of Emax of GLP-1 reached at 1 μM, hGLP-1R” value ([2]; at a concentration of 1 μM) was 38% and the “accumulation of cAMP” value (INS1 cells [3]) was “dose-dependently increased accumulation of cAMP”. The “insulin release compared to PBS” value (INS1 cells [4]; 1 nM, p < 0.001) was “significantly stimulated insulin release”, the “PG 1-61-induced insulin secretion after siRNA knockdown of rGCGR vs mock” value (INS1 cells [4]; 1 nM, p < 0.01) was “significantly blunted” and the “insulin release compared to native glucagon” value (INS1 cells [4]; PG 1-61 1 nM) was “comparable to that of native glucagon”. For the same sequence, the “insulin secretion, tAUC” value (isolated rat pancreases) was 3,534 ± 321 min × pM, the “inhibition of glucagon secretion in diabetic animals” value [5] was “not seem to inhibit the secretion of glucagon” and the “stimulated increase in cAMP after siRNA knockdown of hGCGR vs siRNA control” value ([6]; HepG2, siRNA GCGR) was “attenuated”. The cAMP ([6]; HepG2, 10–1,000 pM) was “stimulated cAMP production dose-dependently”, the “protein levels of PKA, G6P, PKC-1, GP and PECK” value ([7]; 30-min incubation, 1,000 pM) was “significantly increased protein levels” and the “protein levels of PKA, G6P, PKC-1, GP and PECK” value ([7]; 3 hr incubation, compared with 30 min) was “more pronounced effects”. The “protein levels of the enzymes in siRNA-treated cells” value ([7]; siRNA GCGR-treated cells, 30-min incubation) was “tended to be lower”, the “blood glucose, in words” value (rats) was “increased significantly” and the “plasma amino acids (summed molarity)” value (rats) was “decreased significantly”. The plasma insulin (rats; no increase with mannitol) was “increased transiently”.
